# In PubChem BioAssay (NCI):
#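 Cultured in 96-well plates, cells were exposed to test compound for 48 hours across five concentrations. GI50 = concentration required for 50% inhibition of growth. The concentration for full growth arrest is given as TGI.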
# How the values were obtained:
# Assay in all cases: NCI anticancer screen, dose series, 48 h
# LOX IMVI melanoma = test system: LOX IMVI melanoma
# HOP-62 NSCLC = test system: HOP-62 NSCLC
# KM12 colon = test system: KM12 colon
# EKVX NSCLC = test system: EKVX NSCLC
# U251 CNS = test system: U251 CNS
# SF-539 CNS = test system: SF-539 CNS
# TK-10 renal = test system: TK-10 renal
# UACC-257 melanoma = test system: UACC-257 melanoma
# RPMI-8226 leukemia = test system: RPMI-8226 leukemia
# OVCAR-5 ovarian = test system: OVCAR-5 ovarian
Compound,TGI (LOX IMVI melanoma) [µM],TGI (HOP-62 NSCLC) [µM],TGI (KM12 colon) [µM],TGI (EKVX NSCLC) [µM],TGI (U251 CNS) [µM],TGI (SF-539 CNS) [µM],TGI (TK-10 renal) [µM],TGI (UACC-257 melanoma) [µM],TGI (RPMI-8226 leukemia) [µM],TGI (OVCAR-5 ovarian) [µM],GI50 (HOP-62 NSCLC) [µM],GI50 (U251 CNS) [µM],GI50 (SF-539 CNS) [µM]
CCCCCCC(=O)O[C@H]1CC[C@H]2[C@@H]3CCC4C/C(=N/NC(=O)c5cccc6c(=O)c7ccccc7[nH]c56)C=C(C)[C@]4(C)[C@H]3CC[C@]12C (stereo partly drawn),> 25,> 25,> 25,> 25,> 25,> 25,> 25,> 25,> 25,> 25,,,
Cc1ccc(/C=C/c2nnc(N/N=C/c3ccc4c(c3)OCO4)[nH]c2=O)cc1,37.7,33.7,46.9,> 100,33.6,42.4,58.6,> 100,> 100,> 100,,,
O=S(Nc1ccccc1)c1cccc(Cl)c1 (stereo not drawn),> 100,> 100,> 100,> 100,> 100,77.6,> 100,> 100,> 100,> 100,,,
COc1ccc(CNC(=O)NCn2cc(-c3ccccc3)nn2)cc1,> 100,> 100,> 100,> 100,> 100,> 100,> 100,> 100,> 100,> 100,,,
Clc1cc(Cl)cc(C=NC23CC4CC(CC(C4)C2)C3)c1,> 10,> 10,> 10,> 10,> 10,> 10,> 10,> 10,> 10,> 10,,,
Cc1ccc(N(C(=O)Nc2ccccc2)C2=NCC(C)S2)cc1C (stereo not drawn),30.3,> 100,40.5,72.1,51.3,48.5,55.2,> 10,49,73.5,,,
Cc1nn(C(=O)c2ccc(Cl)cc2)c2c1C(c1ccccc1[N+](=O)[O-])SC(N)=N2 (stereo not drawn),> 10,> 10,> 10,> 10,> 10,> 10,> 10,> 10,> 10,> 10,,,
Cn1c(O)c(C=Nc2ccccc2[N+](=O)[O-])c(=O)n(C)c1=O,> 100,> 100,> 100,> 100,> 100,> 100,> 100,> 100,> 100,> 100,,,
COc1cccc([C@H]2C/C(=N\NC(=O)C(=O)N[C@@H](C)c3ccccc3)c3ccccc3N2)c1,> 100,,0.0762,> 100,> 100,21.3,> 100,> 100,0.0503,> 100,0.0835,0.0325,0.0208
Cn1c2ccc3cc2c(=S)c2cc(ccc21)OCCOCCOCCOCCOCCO3,> 10,> 10,> 10,> 10,> 10,> 10,> 10,> 10,> 10,> 10,,,
CC(=O)OCC1OC(c2nc3ccccc3s2)=CC(OC(C)=O)C1OC(C)=O (stereo not drawn),> 100,> 100,> 100,> 100,> 100,> 100,> 100,> 100,> 100,> 100,,,
CCCCc1ccc(Nc2nc(SC)c3[nH]cnc3n2)cc1,> 100,57.7,> 100,> 100,> 100,> 100,> 100,> 100,> 100,> 100,,,
CC(C)(C)OC(=O)N1CCC(C(=O)O)CC1,> 100,> 100,> 100,> 100,> 100,> 100,> 100,> 100,> 100,> 100,,,
C[C@@H](c1ccccc1)N1CN(C(=O)OCc2ccccc2)C(C)(C)CC1=O,> 100,> 100,> 100,> 100,> 100,> 100,> 100,> 100,> 100,> 100,,,
CCOP(=O)(OCC)C(C)(CC)N/C(=N/C(NC(C)=O)(C(F)(F)F)C(F)(F)F)NC1=NC(C(F)(F)F)(C(F)(F)F)N=C(C(F)(F)F)O1 (stereo not drawn),> 100,> 100,> 100,> 100,> 100,> 100,> 100,94.8,73.7,> 100,,,
N#Cc1c(-c2ccc([N+](=O)[O-])cc2)c(C#N)c(=O)n(NS(=O)(=O)c2ccccc2)c1-c1ccccc1,> 100,> 100,> 100,> 100,> 100,> 100,> 100,> 100,> 100,> 100,,,
COC(=O)CNS(=O)(=O)c1ccc(-c2c3nc(c(-c4ccc(S(=O)(=O)NCC(=O)OC)cc4)c4ccc([nH]4)c(-c4ccc(S(=O)(=O)NCC(=O)OC)cc4)c4nc(c(-c5ccc(S(=O)(=O)NCC(=O)OC)cc5)c5ccc2[nH]5)C=C4)C=C3)cc1,> 100,> 100,> 100,> 100,> 100,> 100,> 100,> 100,> 100,> 100,,,
Nc1cccc(/C=C/C(=O)N2CCN(CCOC(c3ccccc3)c3ccccc3)CC2)c1,32.2,32.4,30.7,36.2,29.3,31,28.3,31.5,26.7,34.6,,,
CC1=NN(c2cccc(Cl)c2)C2(SCC(=O)N2c2nc3ccccc3s2)/C1=C\c1cccs1 (stereo not drawn),66.5,> 100,94.6,38.4,41.6,16.1,80.6,64,38.7,56.7,,,
C[C@H](NC(=O)c1ccc(CNC(=O)/C=C/c2cccc(Oc3ccccc3)c2)cc1)c1ccccc1,> 100,> 100,> 100,> 100,> 100,67.8,> 100,> 100,> 100,> 100,,,
CC(C)=CCC/C(=C/CC/C(=C\CCc1ccoc1)C(=O)O)C(=O)O,> 100,> 100,> 100,> 100,> 100,> 100,> 100,> 100,> 100,> 100,,,
CN(C)CCNC(=O)c1cc([N+](=O)[O-])cc2c1Oc1ccccc1O2,> 100,> 100,> 100,> 100,> 100,> 100,> 100,> 100,> 100,> 100,,,
Cc1cccc(N(C(=O)Nc2ccc(Cl)c(Cl)c2)C2=NCC(C)S2)c1 (stereo not drawn),86.5,> 100,> 100,> 100,> 100,> 100,80.3,> 100,> 100,> 100,,,
CC(C)(C)c1cc(C2=NNC(c3ccccc3)C2)cc(C(C)(C)C)c1O (stereo not drawn),29.6,33.3,31.7,36.6,28.8,44.7,29.4,27.5,43.8,40.9,,,
O=c1c2nc3ccccc3c(=O)n2ncn1-c1ccccc1Cl,> 100,> 100,> 100,> 100,> 100,> 100,> 100,> 100,> 100,> 100,,,
CN(C)CCN(C)c1ccc2c(=O)n(CCN(C)C)c(=O)n3c4ccccc4c(=O)c1c23,5.53,1.47,8.08,6.92,8.93,2.15,5.43,4.73,3.32,12.1,,,
COc1ccc(-n2cnc3c2NC(C)(C)N=C3C(N)=O)c(OC)c1,> 100,> 100,> 100,> 100,> 100,> 100,> 100,> 100,> 100,> 100,,,
Cc1cccc(CP(Cc2cccc(C)c2)CC2(Cp3c4ccccc4c4ccccc43)COC2)c1,> 100,> 100,> 100,> 100,> 100,> 100,> 71.8,> 100,> 62.5,> 100,,,
CCCNC(=O)CCC(C)C1CCC2C3C(C[C@H](OC(C)=O)[C@]12C)[C@@]1(C)CCC2(C[C@H]1C[C@H]3OC(C)=O)OOC1(CC[C@]3(C)C4C[C@H](OC(C)=O)[C@]5(C)C(C(C)CCC(=O)NCCC)CCC5C4[C@H](OC(C)=O)C[C@@H]3C1)OO2 (stereo partly drawn),> 100,> 100,> 100,> 100,> 100,> 100,> 100,> 100,> 100,> 100,,,> 82.2
